Values quoted from earlier work in patent publication US20160194352A1, “AMORPHOUS FORMS OF DACLATASVIR DIHYDROCHLORIDE” (Dr.Reddy's Laboratories Ltd., priority 2015, published 2016).

System: HCV
Details: HCV infected patients, combination therapy

Question: For alpha-interferon and ribavirin, which “sustained efficacy, share of patients” value is on record?
Answer: 40% of patients
